Measurements reported in PMC5575254, “An allosteric ligand-binding site in the extracellular cap of K2P channels” (Nature Communications, 2017).
Where a chain is given by its changes, count along the chain named.

Assays:
Assay type in all cases: cell-based
[1] = molecular target: T1, mutant TREK-1 channels (Homo sapiens, UniProt O95069, Q120A); test: Whole-cell voltage clamp of mutant TREK-1 channels; details: Q105A mutant
T1 construct: expressed in transfected cells; host or cells: CHO cells, transient transfection
T1 sequence (O95069 1-411 isoform O95069-2 Q105A): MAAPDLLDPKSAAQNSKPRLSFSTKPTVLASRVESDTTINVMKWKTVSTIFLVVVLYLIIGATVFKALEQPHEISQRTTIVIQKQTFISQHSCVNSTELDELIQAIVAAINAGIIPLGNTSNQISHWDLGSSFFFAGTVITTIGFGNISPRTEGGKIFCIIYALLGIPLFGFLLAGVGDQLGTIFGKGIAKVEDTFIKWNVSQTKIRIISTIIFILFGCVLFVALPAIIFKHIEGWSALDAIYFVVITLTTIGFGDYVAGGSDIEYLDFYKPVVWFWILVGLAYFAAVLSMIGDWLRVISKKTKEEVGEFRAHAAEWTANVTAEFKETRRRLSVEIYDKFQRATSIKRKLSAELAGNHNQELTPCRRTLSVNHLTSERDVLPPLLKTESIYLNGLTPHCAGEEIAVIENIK
Excerpt: (§1) cDNA of the human TREK-1, TREK-2 and TRAAK channels were subcloned into the pEGFPN1 expression vector (Invitrogen), respectively. Mutations were introduced into TREK-1 or TRAAK by PCR using the QuickChange XL sitedirected mutagenesis kit (Agilent Technologies) and were subsequently confirmed by DNA sequencing.
(§2) Chinese hamster ovary (CHO) cells were provided by the Cell Bank of Chinese Academy of Sciences (Shanghai, China). CHO cells were maintained in DMEM/F12 (Gibco) supplemented with 10% fetal bovine serum (Gibco) and 100 μg ml^−1 penicillin-streptomycin (Cellgro) in a humidified incubator at 37 °C (5% CO2). For electrophysiology experiments, cells plated in 35 mm tissue culture dishes (Corning Incorporated) were transiently transfected with the plasmids using PolyJet™ reagent (SignaGen) according to the manufacturer’s instructions. Primers used in this study are listed in Supplementary Table 4.
(§3) All electrophysiological recordings were obtained using patch-clamp recordings in two different configurations: (1) whole cell for macroscopic current dose–response curves; and (2) outside-out and inside-out for macroscopic currents recordings.
(§4) All patch-clamp recordings were conducted 36–96 h after transfection with an Axopatch-200B amplifier (Molecular Devices) at room temperature (23–25 °C). The microelectrodes fashioned from 1.5 mm thin-walled borosilicate glass with filament were pulled from Flaming/Brown type micropipette puller (P-97; SUTTER INSTRUMENT) with the resistances of 3–7 MΩ (whole cell) or 7–15 MΩ (outside-out) when filled with a solution containing (in mM): 140 KCl, 2 MgCl2, 10 EGTA, 1 CaCl2, 10 HEPES (pH 7.3, adjusted with KOH). External solution contained (in mM): 150 NaCl, 5 KCl, 0.5 CaCl2, 1.2 MgCl2, 10 HEPES (pH 7.3, adjusted with NaOH). The current signals were filtered at 1 kHz and digitized at a 10 kHz sampling frequency by using DigiData 1440 A.
(§5) Data of whole-cell voltage clamp experiments were fitted using doseResp function. […]

[2] = molecular target: T2, mutant TREK-1 channels (Homo sapiens, UniProt O95069, Q98A); test: Whole-cell voltage clamp of mutant TREK-1 channels; details: Q83A mutant
T2 construct: expressed in transfected cells; host or cells: CHO cells, transient transfection
T2 sequence (O95069 1-411 isoform O95069-2 Q83A): T1 sequence (O95069 1-411 isoform O95069-2 Q105A) with Q83A, A105Q
Excerpt: as §1, §2, §3, §4, §5

[3] = molecular target: T3, mutant TREK-1 channels (Homo sapiens, UniProt O95069, T94A); test: Whole-cell voltage clamp of mutant TREK-1 channels; details: T79A mutant
T3 construct: expressed in transfected cells; host or cells: CHO cells, transient transfection
T3 sequence (O95069 1-411 isoform O95069-2 T79A): T1 sequence (O95069 1-411 isoform O95069-2 Q105A) with T79A, A105Q
Excerpt: as §1, §2, §3, §4, §5

[4] = molecular target: T4, TREK-1 channel (Homo sapiens, UniProt O95069); test: Whole-cell voltage clamp of CHO cells transiently transfected with TREK-1
T4 construct: expressed in transfected cells; host or cells: CHO cells, transient transfection
T4 sequence (O95069 1-411 isoform O95069-2): T1 sequence (O95069 1-411 isoform O95069-2 Q105A) with A105Q
Excerpt: as §1, §2, §3, §4
Data of whole-cell voltage clamp experiments were fitted using doseResp function. The half inhibition concentrations were derived from fits of the dose–response curves to the function:1 I/I0=A1+A2-A1/1+10^logx0-xP, where I 0 and I are current amplitudes before and after application of inhibitors; A 1 and A 2 are constants between 0 and 1; x is the concentration of inhibitor; x o is the concentration when 50% inhibition was reached (IC50), P is the Hill constant.

## CS(=O)(=O)N(CC(=O)N1CCc2ccccc2C1)c1ccc(Cl)cc1 [TKDC, N-(4-cholorphenyl)-N-(2-(3,4-dihydrosioquinolin-2(1H)-yl)-2-oxoethyl)methanesulfonamide]
[1]
  IC50: 2200 ± 500 nM
[2]
  IC50: 2400 ± 600 nM
[3]
  IC50: 2400 ± 400 nM
[4]; perfusion with 10 μM
  effect on TREK-1 current: pronounced decreases in current
[4]; whole-cell, CHO cells, WT TREK-1, mean ± s.e.m, read-out: half-maximal inhibition concentration (IC50), TREK-1
  IC50: 4900 ± 600 nM
